Reference: patent US7025991B2, “Drug targeting system, method of its preparation and its use” (NanoDel Technologies GmbH, priority 1997, dated 2006)

Test system: mice
Assay: hot plate test (analgesic effect) after intravenous or oral application
Type: in vivo
Conditions: intravenous injection, dalargin dose 10.0 mg/kg
Description: Dalargin was given either in solution, or after sorptive binding to nanoparticles. The groups (n=10) are as follows:
Dalargin was given either in solution, or after sorptive binding to nanoparticles. The data were collected at different time points following oral application.
Dalargin was given either in solution, or after sorptive binding to nanoparticles that were stabilized with Dextran 12.000.
Dalargin was adsorbed to poly(butyl cyanoacrylate) nanoparticles which were stabilized with polysorbate 85.
After this time, the preparation was injected intravenously into mice at a dalargin dose of 10.0 mg/kg. Various preparations include pure dalargin solution and empty nanoparticles served as controls.
Activity threshold was measured with the hot plate test.
2. […] The analgesia was determined 30, 45, 60, 90, 120 and 150 min after p.o. application.
4. To test the question whether other stabilizers may be used to achieve the desired effect, nanoparticles were investigated in which the stabilizer was the low molecular size dextran 12,000. The dextran 12,000 stabilized nanoparticles of Example 2 were loaded with dalargin, and the analgesic effect was determined in the hot plate test after intravenous injection into mice.

Substance: dalargin
- analgesic effect, hot plate test: did not exhibit any analgesic effect
- analgesic effect, hot plate test (listed as dalargin alone): None of the control groups (empty nanoparticles and dalargin alone) exhibited any analgesic effects
